Experimental findings from PMC4036671, “Switching and emergence of CTL epitopes in HIV-1 infection” (Retrovirology, 2014) are described below.

Assay [1] concerns expanded PBMCs from 46 HIV-1 patients. Nature of the assay: IFN-γ ELISpot assay using expanded PBMCs (screening of HLA-A*24:02-restricted epitopes). It is filed as cell-based, human. To be noted: for response rate: 46 HLA-A*24:02-positive HIV-1 patients, peptide 10^-5 M, overnight 16 to 18 h, positive >50 SFU per 10^6 cells; for peptide-specific response among patients with Nef135Y: eight patients with Nef135Y in plasma HIV RNA. The procedure:
(§1) The gamma interferon enzyme-linked immunospot (IFN-γ ELISpot) assay was performed using patients’ PBMCs as previously described with some modifications. In brief, 96-well plates (Millipore) were coated with anti-gamma-interferon (IFN-γ) MAb 1-D1k (Mabtech) overnight at 4°C. Peptides were added directly to the wells at a final concentration of 10^-5 M. 5 ~ 10 × 10^4 cells were added to each well with a final volume of 100 μl of R10. For negative controls, PBMCs were incubated with R10 alone without peptides. After incubation at 37°C under 5% CO2 overnight (16 to 18 h), the plates were washed six times with phosphate-buffered saline containing 0.01% tween-20 (PBST). Biotinylated anti-IFN-γ MAb 7-B6-1 (Mabtech) was added, and was incubated for 2 hours at 37°C under 5% CO2. After washing with PBST, streptavidin-alkaline phosphatase conjugate (Mabtech) was added and the plates were kept at room temperature for 45 min. After washing with PBST, IFN-γ-producing cells were detected as dark spots after 10- to 20-min color reaction with 5-bromo-4-chloro-3-indolylphosphate and nitroblue tetrazolium by using AP Conjugate Substrate Kit (Bio-Rad). Spots were counted by KS ELISPOT compact (Carl Zeiss) and expressed as spot-forming units (SFU) per 10^6 PBMCs after subtracting the SFU of the negative control. Values with >50 SFU, >3 × mean SFU of negative control and > mean SFU of negative control + 3 SD per 10^6 input cells were considered as a positive response.
(§2) Since more cells were required for the immune response screening (Figure 1B) and functional avidity assays (Figures 4B and 6C), PBMCs were stimulated with anti-human CD3 antibody and the T cells were expanded for 2 to 3 weeks in R10/50 (BD Pharmingen). Culture media was changed to R10 two days prior to the assay date. For ex vivo IFN-γ ELISpot assay (Figures 5B and 6B), PBMCs were cultured for 6 hours in R10 media.

In assay [2] the test system is expanded PBMCs. Nature of the assay: Longitudinal IFN-γ ELISpot assay with serially diluted peptides in one individual. To be noted: one patient; for peptide-specific IFN-γ ELISpot response, latter time point: 2003/3/20, plasma virus 133T/135F. It is filed as cell-based, human. The procedure: as §1, with “In brief, 96-well plates (Millipore) were coated with anti-gamma-interferon (IFN-γ) MAb 1-D1k (Mabtech) overnight at 4°C.” left out, “Biotinylated anti-IFN-γ MAb 7-B6-1 (Mabtech) was added, and was incubated for 2 hours at 37°C under 5% CO2.” left out
as §2

Assay [3] concerns the target HLA-A*24:02 (Homo sapiens, UniProt P04439, D101N/D140Y/D185E/E176V/E190D/F33S/G103R/G107R/I119L/I121M/I306V/K335N/L105A/L180Q/L300P/N151K/N90K/Q86E/Q94H/R106L/R138H/R89G/T104I/T345S/V100E/W191G/Y123F). Nature of the assay: Peptide-HLA binding assay (T2-A24 stabilization assay). To be noted: T2-A24 cells, 10^-4 to 10^-9 M peptide, normalized MFI (to 10^-4 M Nef134-8), three independent experiments. The procedure: Peptide binding to HLA-A*24:02 was assessed by using a T2-A24 stabilization assay as previously described. Briefly, after incubation for 16 hours at 26°C under 5% CO2, 2 × 10^5 T2-A24 cells were incubated with 10^-4 to 10^-9 M peptides for 1 h at 4°C. After keeping at 37°C under 5% CO2 for 3 hours, the cells were stained with biotinylated anti-human HLA-A9 monoclonal antibody (One Lambda), and streptavidin-APC conjugates (BD Pharmingen). The mean fluorescence intensity (MFI) was measured by FACSCalibur (Becton Dickinson). In each experiment, MFI of samples was normalized by the MFI of 10^-4 M control peptide, Nef134-8([…]). Three independent experiments were performed.

Assay [4] concerns Nef126-10-specific CTL clone I30-1. Nature of the assay: Epitope recognition by CTL clone, peptide-pulsed 293FT-A24DRm-CY0 cells, IFN-γ ELISA. It counts as cell-based, human. To be noted: 293FT-A24DRm-CY0 cells pulsed with serially diluted peptide (3^2 to 3^-6 μM), co-culture 18 to 24 h, three independent experiments. How it is done: (§3) The cells were washed twice with R10, then cultured with 1 × 10^6 autologous PBMCs and 4 × 10^6 irradiated (3300 rad) allogeneic PBMCs in R10. After 4 days, IL-2 was added to 50 U/ml and the cells were cultured for 2–3 weeks in R10/50. Peptide-specific CD8^+ T cells were enriched by MACS separation (Miltenyi) using tetramers. The sorted cells were cloned by limiting dilution to 3 or 10 cells/well in 96-well round-bottom tissue culture plates, and cultured with 10^5 irradiated allogeneic PBMCs in R10/50 containing 5 μg/ml PHA-L.
(§4) CTL-recognition of the epitopes was assessed by serially diluted peptides. On day 0, 293FT-A24DRm-CY0 cells were seeded onto 96-well Flat-bottom transparent plate (BD Falcon) so that the cultures become confluent on day 2. On day 2, each peptide was pulsed with concentrations from 3^2 to 3^-6 μM to the wells and incubated at 37°C under 5% CO2 for 1 h. Then CTLs (5,000 ~ 10,000 cells) were added and co-cultured at 37°C under 5% CO2 for 18 to 24 h. After the incubation, supernatants were harvested, and IFN-γ concentrations were quantified by Human IFN-γ ELISA Set (BD Bioscience). In each experiment, the IFN-γ value of samples was normalized to that of the highest wild type peptide concentration (9 μM). For example, each IFN-γ value of I30-1 CTL clone was divided by the value of the well pulsed with 9 μM Nef126-10(wt) peptide. Each assay was performed in duplicate and three independent experiments were conducted.

The subject of assay [5] is PBMCs. Nature of the assay: Ex vivo IFN-γ ELISpot assay. It is filed as cell-based, human. To be noted: for correlation between magnitude of peptide-specific response and pVL: 24 IMSUT cohort patients harboring 133I/135F or 133T/135F, ex vivo IFN-γ ELISpot with frozen PBMCs, Spearman's rank correlation; for patients with peptide-specific response, plasma viruses 133T/135F: patients with 133T/135F viruses (n = 10). The procedure: as §1, §2

For assay [6], the system named is Nef134-10-specific CTL clone H27-9. Nature of the assay: Epitope recognition by CTL clone, peptide-pulsed 293FT-A24DRm-CY0 cells, IFN-γ ELISA. It is filed as cell-based, human. To be noted: 293FT-A24DRm-CY0 cells pulsed with serially diluted peptide (3^2 to 3^-6 μM), co-culture 18 to 24 h, three independent experiments. The procedure: as §3, §4
For assay [7], the system named is expanded PBMCs. Nature of the assay: Functional avidity assay (IFN-γ ELISpot, limiting dilution of peptide). It is filed as cell-based, human. To be noted: nine individuals harboring 133T/135F, peptide 10^-5 to 10^-12 M, compared to Nef126-10(8T10F), Mann-Whitney U-test p < 0.05. The procedure:
Basically, the assay was performed using the same procedure with IFN-γ ELISpot assay as described above. PBMCs were cultured for 2 to 3 weeks in R10/50 after anti-human CD3 antibody (BD Pharmingen) stimulation, and culture media were changed from R10/50 to R10 two days before use. PBMCs were incubated with peptides at concentrations from 10^-5 to 10^-12 M, and SFU was calculated. The functional avidity to peptide dilutions was determined as a 50% of sigmoidal dose (SD50) SFU.
All data visualization and statistical analyses were performed using GraphPad Prism (GraphPad Software, La Jolla, CA). Student’s t-test and Mann–Whitney U-test were used to compare the antigen presentation and functional avidity between two groups, respectively. Spearman rank correlation was used to calculate the correlation between peptide-specific response and pVL. Dose at 50% response in sigmoidal dose–response curves (SD50) was calculated by drawing sigmoidal dose–response curves. Time to mutational escape, defined as the time elapsed between estimated date of HIV-1 infection and the first appearance of a full or partial amino acid change consistent with the specific escape mutation of interest, was calculated using Kaplan-Meier (survival) methods.

Take “Nef134-10: published HLA-A*24:02-restricted HIV-1 nef CTL epitope peptide, 10 amino acids from Nef134 (HXB2 numbering) (RYPLTFGWCY; UniProt P04601 134-143, looked up, fragment)”: in assay [1] (35 patients harboring Nef135F), the “number of responders among patients harboring Nef135F” value stood at 28 and the “response rate among patients harboring Nef135F” value is recorded as 80.0%. In addition, in assay [1], the response rate is listed as 80.4% and the “peptide-specific response among patients with Nef135Y” value is “all of them”. The “peptide-specific IFN-γ ELISpot response, latter time point” value in assay [2] was “decreased but remained detectable”.

With “Nef126-10: published HLA-A*24:02-restricted HIV-1 nef CTL epitope peptide, 10 amino acids from Nef126 (HXB2 numbering) (NYTPGPGVRY; UniProt P04601 126-135, looked up, fragment)”, the “number of responders among patients harboring Nef135F” value in assay [1] (35 patients harboring Nef135F) was 23. Besides, in assay [1], the response rate was 50.0% and the “peptide-specific response among patients with Nef135Y” value is “none of the eight patients”. Also, the “peptide-specific IFN-γ ELISpot response, earlier time point” value in assay [2] (2000/9/4, plasma virus wild type around Nef126-10/Nef134-10) is given as “no Nef126-10-specific responses were observed”.

Regarding “Nef126-10(8T10F): Nef126-10 peptide with threonine at 8th position (I133T) and F at position 10 (NYTPGPGTRF)”, the “binding to HLA-A*24:02” value in assay [3] was “did not significantly affect epitope-HLA binding”. For the same substance, the “IFN-γ production by CTL clone I30-1” value in assay [4] is given as “strong responses at very low peptide concentration”. In assay [2], the “peptide-specific IFN-γ ELISpot response, latter time point” value is reported as “robust responses”. Besides, in assay [5], the “correlation between magnitude of peptide-specific response and pVL” value is “not”. Besides, the “patients with peptide-specific response, plasma viruses 133I/135F” value in assay [5] (ex vivo IFN-γ ELISpot, PBMCs, patients with 133I/135F viruses (n = 4)) was 0 of 4. Moreover, in assay [5] (ex vivo IFN-γ ELISpot, PBMCs), the “patients with peptide-specific response, plasma viruses 133T/135F” value is on record as “Nine out of 10”.

Regarding KYKLKHIVW [Gag28-9, reference compound], the response rate in assay [1] came out at 40.0%. In assay [4], the “IFN-γ production by CTL clone I30-1” value is reported as “Neither clone showed specificity”. Moreover, the “IFN-γ production by CTL clone H27-9” value in assay [6] is “Neither clone showed specificity”.

Regarding “Nef126-10(wt): wild-type Nef126-10 peptide with Y at the C-terminus (NYTPGPGIRY)”, in assay [3], the “binding to HLA-A*24:02” value was “lowers the affinity”. Further, the “IFN-γ production by CTL clone I30-1” value in assay [4] is recorded as “only at high concentrations”. Besides, the “peptide-specific IFN-γ ELISpot response, latter time point” value in assay [2] was “detected only at high peptide concentrations”.

Take VPLDKDFRKY [reference compound]: in assay [3], the “binding to HLA-A*24:02” value is recorded as “might not bind to HLA-A*24:02”.

Regarding Nef126-10(8I10F) (NYTPGPGIRF), the “binding to HLA-A*24:02” value in assay [3] was “dramatically improved its binding”. In assay [4], the “IFN-γ production by CTL clone I30-1” value is given as “strong responses at very low peptide concentration”. The “peptide-specific IFN-γ ELISpot response, latter time point” value in assay [2] is recorded as “robust responses”. In addition, the “correlation between magnitude of peptide-specific response and pVL” value in assay [5] was “inversely correlated with pVL”. In addition, the “patients with peptide-specific response, plasma viruses 133T/135F” value in assay [5] (ex vivo IFN-γ ELISpot, PBMCs) was 7 of 10. Also, in assay [7], the “functional avidity (SD50) of peptide-specific CTL responses” value is on record as “significantly higher avidities”.
